# Literature values in patent US7993907B2, “Biochips and method of screening using drug induced gene and protein expression profiling” (Mowycal Lending, LLC, priority 2001, dated 2011).
# Like-named read-outs stand apart in the source and are kept apart here. Where no end group is shown, it is not given here. The star is where a group is joined. For = O=C*
# What was measured:
# [1] = Indication Alzheimer's Disease
# [2] = examples of hazardous chemicals
# [3] = Indication Osteoporosis
# [4] = Indication Breast Cancer
# [5] = Indication Acute Respiratory Disease
# [6] = Indication Congestive Heart Failure
# [7] = system: G protein γ kinase
# [8] = system: human peripheral blood cells; conditions: cells stimulated by pro-inflammatory agents or molecules
molecule,measurement,setting,value
C[C@]12CC[C@H](O)CC1=CC[C@@H]1[C@@H]2CC[C@]2(C)C(=O)CC[C@@H]12 [DHEA],Termination (reason drug was discontinued or terminated in FDA trials),[1],Results were equal
"CC[n+]1c(-c2ccccc2)c2cc(N)ccc2c2ccc(N)cc21 [Ethidium Bromide (EtBr), Ethidium Bromide]",Hazard,[2],Mutagen
CC/C(=C(\c1ccc(I)cc1)c1ccc(OCCN2CCCC2)cc1)c1ccccc1 [Idoxifene],Termination (reason drug was discontinued or terminated in FDA trials),[3],Lack of efficacy
same,Termination (reason drug was discontinued or terminated in FDA trials),[4],Lack of efficacy
C[C@@H](O)CCCCn1c(=O)c2c(ncn2C)n(C)c1=O [Lisofylline],Termination (reason drug was discontinued or terminated in FDA trials),[5],Safety Board
ENBREL,Termination (reason drug was discontinued or terminated in FDA trials),[6],Lack of efficacy
f-Met-Leu-Phe-Phe (For-MLFF) [HK-X],Mechanism of action on G protein γ kinase,[7],inhibition of G protein γ kinase
same,Effect on pro-inflammatory responses of human peripheral blood cells,[8],inactivate certain pro-inflammatory responses
